According to ChEMBL document CHEMBL5608113, “Targeting of CAF-induced therapy resistance in CRC organoid-stroma co-cultures” (2024):

Assays:
Format in all cases: functional, Homo sapiens
Conditions in all cases: Homo sapiens, read-out: Cell Viability; for viability at 10 µM: Concentration 10 uM; for viability at 1 µM: Concentration 1 uM
Colon cancer organoid [1] = assay: Targeting of F14 CAF-induced therapy resistance in O14 CRC organoid-stroma co-culture. Cell viability is reported with Gefitinib.
Colon cancer organoid [2] = assay: Targeting of F14 CAF-induced therapy resistance in O23 CRC organoid-stroma co-culture. Cell viability is reported without Gefitinib.
Colon cancer organoid [3] = assay: Targeting of F14 CAF-induced therapy resistance in O23 CRC organoid-stroma co-culture. Cell viability is reported with SN-38.
Colon cancer organoid [4] = assay: Targeting of F14 CAF-induced therapy resistance in O14 CRC organoid-stroma co-culture. Cell viability is reported without Gefitinib.
Colon cancer organoid [5] = assay: Targeting of F14 CAF-induced therapy resistance in O23 CRC organoid-stroma co-culture. Cell viability is reported with Gefitinib.

Row | SMILES | viability at 10 µM (Colon cancer organoid [1]) | viability at 10 µM (Colon cancer organoid [2]) | viability at 10 µM (Colon cancer organoid [3]) | viability at 10 µM (Colon cancer organoid [4]) | viability at 10 µM (Colon cancer organoid [5]) | viability at 1 µM (Colon cancer organoid [1]) | viability at 1 µM (Colon cancer organoid [2]) | viability at 1 µM (Colon cancer organoid [3]) | viability at 1 µM (Colon cancer organoid [4]) | viability at 1 µM (Colon cancer organoid [5])
1 | CN(C)[C@H]1CCN(c2cc(-c3ccccc3)nc3ccnn23)C1 [(S)-ZINC-3573] | 33.4% | 98.9% | 49.3% | 68.9% | 55.6% |  |  |  |  | 
2 | Cn1cncc1[C@@](O)(COc1ccc(C#N)cc1-c1ccc(OC(F)(F)F)cc1)c1ccc(C#N)cc1 [A-108] | 47.8% | 131% | 112% | 108% | 69.3% |  |  |  |  | 
3 | CCC(=N\O)/C(C)=C/c1ccc(F)c(C)c1 [A-226] | 62.5% | 97.1% | 93.1% | 119% | 49.8% |  |  |  |  | 
4 | CNC(=O)Nc1ccc2c(c1)CC[C@@]21OC(=O)N(CC(=O)N(Cc2ccc(F)cc2)[C@@H](C)C(F)(F)F)C1=O [A-485] |  |  |  |  |  | 23.9% | 60.4% | 51% | 65.4% | 34.6%
5 | CNC(=O)Nc1ccc2c(c1)[C@@]1(CC2)OC(=O)N(CC(=O)N(Cc2ccc(F)cc2)[C@@H](C)C(F)(F)F)C1=O [A-486] |  |  |  |  |  | 50% | 92.2% | 69.7% | 90.8% | 47.9%
6 | CCCCN(CCCC)C(=O)CN1C[C@@H](c2cc(OC)c3c(c2)OCO3)[C@H](C(=O)O)[C@H]1CC(C)(C)CCC [A-545] | 61.5% | 142% | 88.5% | 83.6% | 47% |  |  |  |  | 
7 | CSc1cccnc1N1CCN(Cc2nc3ccccc3[nH]2)CC1 [A-769] | 36.4% | 111% | 103% | 73.4% | 59% |  |  |  |  | 
8 | CCCOc1ccc([C@H]2[C@H](C(=O)O)[C@@H](c3ccc4c(c3)OCO4)CN2CC(=O)Nc2c(CC)cccc2CC)cc1 [A-192621] |  |  |  |  |  | 27.4% | 112% | 50% | 117% | 48.1%
9 | CN(C)CC#Cc1ccc(OCCCc2sc(N3CCc4cccc(C(=O)Nc5nc6ccccc6s5)c4C3)nc2C(=O)O)c(F)c1 [A-1155463] | 21.1% | 5.72% | 0.449% | 61.6% | 2.66% |  |  |  |  | 
10 | CO[C@H]1CC[C@H](CNc2ccc(S(=O)(=O)NC(=O)c3ccc(N4CCN(CC5=C(c6ccc(Cl)cc6)CC(C)(C)CC5)CC4)cc3Oc3cnc4[nH]ccc4c3)cc2[N+](=O)[O-])CC1 [A-1211212] | 25% | 83.3% | 32.3% | 40.4% | 30.6% |  |  |  |  | 
11 | COc1ccc2c(c1)O[C@H](c1ccc(OC)c(OC)c1)C[C@@H]2NC(=O)C1(c2ccc3c(c2)OC(F)(F)O3)CC1 [A-1596584] | 48.4% | 111% | 59.1% | 74.5% | 48.5% |  |  |  |  | 
12 | COc1ccc2c(c1)O[C@@H](c1ccc(OC)c(OC)c1)C[C@H]2NC(=O)C1(c2ccc3c(c2)OC(F)(F)O3)CC1 [A-1596586] | 44.6% | 129% | 51.3% | 121% | 42.2% |  |  |  |  | 
13 | CCCOc1ccc([C@@H]2[C@@H](C(=O)O)[C@H](c3ccc4c(c3)OCO4)CN2CC(=O)Nc2c(CC)cccc2CC)cc1 [A-1806262] |  |  |  |  |  | 47.8% | 85% | 54.5% | 79.9% | 38.9%
14 | CCNC(=O)c1cc2c(-c3cc(C(C)(C)O)ccc3Oc3c(C)cc(F)cc3C)cn(C)c(=O)c2[nH]1 [ABBV-744] | 14.3% | 135% | 75.1% | 78.2% | 82% |  |  |  |  | 
15 | COc1cc(Nc2ncc3c(n2)-c2ccc(Cl)cc2C(c2c(F)cccc2OC)=NC3)ccc1C(=O)O [ALISERTIB] | 7.3% | 32.9% | 46.6% | 16.2% | 13.7% |  |  |  |  | 
16 | CC(C)[C@H](C(=O)Nc1ccc(C(=O)NO)cc1)c1ccccc1 [AR-42] | 23.6% | 210% | 131% | 34.5% | 263% |  |  |  |  | 
17 | Cc1cnc(-c2cc(Cl)ccc2F)cc1-n1c(=O)n(CC(N)=O)c2ccccc21 [Al11] | 31.3% | 120% | 66.2% | 104% | 94.6% |  |  |  |  | 
18 | Cc1ccccc1Oc1cc(-n2c(=O)cc(C(F)(F)F)[nH]c2=O)c2ccccc2c1Cl [BAY-069] | 40.6% | 116% | 51.3% | 167% | 56.6% |  |  |  |  | 
